Test results taken from ChEMBL document CHEMBL4251601 (Eur J Med Chem, 2018).

Tests used:
[1] = Fraction unbound in CD-1 mouse plasma at 2 uM incubated for 4 hrs by LC/MS/MS analysis based equillibriun dialysis method; assay type: ADME, cell-free
[2] = molecular target: Serine/threonine-protein kinase PAK 1 (Homo sapiens) (UniProt Q13153); assay: Inhibition of recombinant human full length GST-tagged PAK1 expressed in baculovirus expression system at 0.1 uM by Z'-Lyte assay relative to control
[3] = AUC (0 to 24 hrs) in Sprague-Dawley rat at 2 mg/kg, iv administered as single dose by LC-MS/MS analysis; assay type: ADME, organism-based; design: dose 2 mg/kg, time < 24 hr, route intravenous; conditions: in vivo
[4] = molecular target: Hepatocyte growth factor receptor (Homo sapiens) (UniProt P08581); assay: Inhibition of recombinant human His-tagged c-Met cytoplasmic domain expressed in baculovirus expression system at 0.1 uM by Z'-Lyte assay relative to control
[5] = molecular target: Serine/threonine-protein kinase 10 (Homo sapiens) (UniProt O94804); assay: Inhibition of LOK1 (unknown origin) at 0.1 uM by Z'-Lyte assay relative to control
[6] = molecular target: Proto-oncogene tyrosine-protein kinase Src (Homo sapiens) (UniProt P12931); assay: Inhibition of recombinant human full length His-tagged SRC expressed in baculovirus expression system at 0.1 uM by Z'-Lyte assay relative to control
[7] = Half life in CD-1 mouse plasma at 10 mg/kg, po administered as single dose by LC-MS/MS analysis; assay type: ADME, organism-based
[8] = Cmax in ICR mouse at 5 mg/kg, po administered as single dose by LC-MS/MS analysis; assay type: ADME, organism-based; design: dose 5 mg/kg, route oral; conditions: in vivo
[9] = molecular target: Phosphatidylinositol 4,5-bisphosphate 3-kinase catalytic subunit beta isoform (Homo sapiens) (UniProt P42338); assay: Inhibition of PI3K beta (unknown origin) at 0.1 uM by ADP-Glo assay relative to control
[10] = molecular target: Aurora kinase B (Homo sapiens) (UniProt Q96GD4); assay: Inhibition of recombinant full length human His-tagged AURKB expressed in baculovirus expression system at 1 uM by Z'-Lyte assay relative to control
[11] = molecular target: 3-phosphoinositide-dependent protein kinase 1 (Homo sapiens) (UniProt O15530); assay: Inhibition of recombinant human full length His-tagged PDK1 expressed in baculovirus expression system at 0.1 uM by Z'-Lyte assay relative to control
[12] = 1-octanol-phosphate buffer distribution coefficient, log D of the compound at pH 7.4 after 1 hr by LC-MS/MS method; assay type: physicochemical
[13] = molecular target: 3-phosphoinositide-dependent protein kinase 1 (Homo sapiens) (UniProt O15530); assay: Inhibition of recombinant human full length His-tagged PDK1 expressed in baculovirus expression system at 1 uM by Z'-Lyte assay relative to control
[14] = Volume of distribution at steady state in Sprague-Dawley rat at 2 mg/kg, iv administered as single dose by LC-MS/MS analysis; assay type: ADME, organism-based; conditions: in vivo, read-out: Vdss
[15] = molecular target: Tyrosine-protein kinase Tec (Homo sapiens) (UniProt P42680); assay: Inhibition of recombinant human full length His-tagged TEC expressed in baculovirus expression system at 1 uM by TR-FRET assay relative to control
[16] = molecular target: Tyrosine-protein kinase Lck (Homo sapiens) (UniProt P06239); assay: Inhibition of recombinant human full length His-tagged LCK expressed in baculovirus expression system at 1 uM by Z'-Lyte assay relative to control
[17] = molecular target: Hepatocyte growth factor receptor (Homo sapiens) (UniProt P08581); assay: Inhibition of recombinant human His-tagged c-Met cytoplasmic domain expressed in baculovirus expression system at 1 uM by Z'-Lyte assay relative to control
[18] = molecular target: Ephrin type-B receptor 2 (Homo sapiens) (UniProt P29323); assay: Inhibition of recombinant human GST-tagged EPHB2 cytoplasmic domain (616 to 884 residues) expressed in baculovirus expression system at 1 uM by Z'-Lyte assay relative to control
[19] = molecular target: Casein kinase I isoform gamma-1 (Homo sapiens) (UniProt Q9HCP0); assay: Inhibition of recombinant full length human GST-tagged CK1gamma1 expressed in baculovirus expression system at 0.1 uM by Z'-Lyte assay relative to control
[20] = molecular target: Epidermal growth factor receptor (Homo sapiens) (UniProt P00533); assay: Inhibition of recombinant human GST-tagged EGFR cytoplasmic domain expressed in baculovirus expression system at 1 uM by TR-FRET assay relative to control
[21] = molecular target: Phosphatidylinositol 4,5-bisphosphate 3-kinase catalytic subunit gamma isoform (Homo sapiens) (UniProt P48736); assay: Inhibition of PI3K gamma (unknown origin) at 1 uM by ADP-Glo assay relative to control
[22] = molecular target: Vascular endothelial growth factor receptor 2 (Homo sapiens) (UniProt P35968); assay: Inhibition of recombinant human His-tagged KDR cytoplasmic domain expressed in baculovirus expression system at 1 uM by Z'-Lyte assay relative to control
[23] = molecular target: Tyrosine-protein kinase JAK1 (Homo sapiens) (UniProt P23458); assay: Inhibition of recombinant human GST-tagged JAK1 expressed in baculovirus expression system at 1 uM by TR-FRET assay relative to control
[24] = molecular target: Serine/threonine-protein kinase PLK1 (Homo sapiens) (UniProt P53350); assay: Inhibition of recombinant human full length His-tagged PLK1 expressed in baculovirus expression system at 0.1 uM by Z'-Lyte assay relative to control
[25] = molecular target: Mitogen-activated protein kinase kinase kinase 14 (Homo sapiens, UniProt Q99558); assay: Inhibition of recombinant human GST-tagged NIK expressed in baculovirus expression system at 1 uM by Z'-Lyte assay relative to control
[26] = molecular target: Tyrosine-protein kinase SYK (Homo sapiens) (UniProt P43405); assay: Inhibition of recombinant human full length GST-tagged SYK expressed in baculovirus expression system at 1 uM by Z'-Lyte assay relative to control
[27] = molecular target: RAC-beta serine/threonine-protein kinase (Homo sapiens) (UniProt P31751); assay: Inhibition of recombinant full length human His-tagged AKT2 expressed in baculovirus expression system at 1 uM by TR-FRET assay relative to control
[28] = molecular target: Tyrosine-protein kinase receptor UFO (Homo sapiens) (UniProt P30530); assay: Inhibition of recombinant human N-terminal GST tagged AXL (473-end residues) expressed in baculovirus infected Sf9 cells at 1 uM by Z'-Lyte assay relative to control
[29] = molecular target: Phosphatidylinositol 4,5-bisphosphate 3-kinase catalytic subunit gamma isoform (Homo sapiens) (UniProt P48736); assay: Inhibition of PI3K gamma (unknown origin) at 0.1 uM by ADP-Glo assay relative to control
[30] = molecular target: Mitogen-activated protein kinase 14 (Homo sapiens) (UniProt Q16539); assay: Inhibition of recombinant human full length GST-tagged p38alpha expressed in Escherichia coli at 1 uM by Z'-Lyte assay relative to control
[31] = Fraction unbound in CD-1 mouse brain at 2 uM incubated for 4 hrs by LC/MS/MS analysis based equillibriun dialysis method; assay type: ADME, tissue-based
[32] = tested on: Mitogen-activated protein kinase kinase kinase 7; assay: Inhibition of TAK1 (unknown origin) at 1 uM by TR-FRET assay relative to control; conditions: Homo sapiens

Sequence of Phosphatidylinositol 4,5-bisphosphate 3-kinase catalytic subunit gamma isoform (Homo sapiens) (P48736 whole entry, looked up, the tested form may be a part, canonical isoform): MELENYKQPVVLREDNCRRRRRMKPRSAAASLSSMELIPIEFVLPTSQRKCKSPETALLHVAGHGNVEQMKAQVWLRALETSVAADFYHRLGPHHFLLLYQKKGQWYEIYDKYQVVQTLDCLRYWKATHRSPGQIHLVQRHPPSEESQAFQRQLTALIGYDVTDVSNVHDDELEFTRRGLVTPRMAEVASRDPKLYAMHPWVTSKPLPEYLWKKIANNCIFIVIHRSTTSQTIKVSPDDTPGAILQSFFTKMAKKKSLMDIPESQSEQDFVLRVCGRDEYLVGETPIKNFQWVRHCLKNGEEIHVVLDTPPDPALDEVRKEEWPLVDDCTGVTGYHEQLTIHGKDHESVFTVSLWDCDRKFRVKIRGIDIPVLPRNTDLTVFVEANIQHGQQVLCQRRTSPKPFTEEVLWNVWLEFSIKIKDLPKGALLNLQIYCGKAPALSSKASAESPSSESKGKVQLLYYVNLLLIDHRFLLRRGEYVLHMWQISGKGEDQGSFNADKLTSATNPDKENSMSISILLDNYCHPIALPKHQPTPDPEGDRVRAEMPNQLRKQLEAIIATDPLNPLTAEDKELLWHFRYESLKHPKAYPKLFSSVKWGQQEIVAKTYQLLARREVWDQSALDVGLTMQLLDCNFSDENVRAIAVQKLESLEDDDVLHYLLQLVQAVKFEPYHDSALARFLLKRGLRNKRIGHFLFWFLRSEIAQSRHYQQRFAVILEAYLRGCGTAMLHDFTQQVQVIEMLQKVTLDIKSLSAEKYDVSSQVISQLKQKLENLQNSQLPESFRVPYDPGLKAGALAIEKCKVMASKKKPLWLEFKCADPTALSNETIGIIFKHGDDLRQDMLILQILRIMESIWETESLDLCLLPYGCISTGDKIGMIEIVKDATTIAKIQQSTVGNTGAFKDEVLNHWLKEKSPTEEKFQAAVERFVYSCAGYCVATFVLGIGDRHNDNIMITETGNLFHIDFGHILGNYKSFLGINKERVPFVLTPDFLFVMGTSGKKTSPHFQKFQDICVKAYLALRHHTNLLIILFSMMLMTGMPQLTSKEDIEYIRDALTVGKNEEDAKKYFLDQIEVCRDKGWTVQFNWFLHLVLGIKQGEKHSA
Sequence of Hepatocyte growth factor receptor (Homo sapiens) (P08581 whole entry, the tested form may be a part): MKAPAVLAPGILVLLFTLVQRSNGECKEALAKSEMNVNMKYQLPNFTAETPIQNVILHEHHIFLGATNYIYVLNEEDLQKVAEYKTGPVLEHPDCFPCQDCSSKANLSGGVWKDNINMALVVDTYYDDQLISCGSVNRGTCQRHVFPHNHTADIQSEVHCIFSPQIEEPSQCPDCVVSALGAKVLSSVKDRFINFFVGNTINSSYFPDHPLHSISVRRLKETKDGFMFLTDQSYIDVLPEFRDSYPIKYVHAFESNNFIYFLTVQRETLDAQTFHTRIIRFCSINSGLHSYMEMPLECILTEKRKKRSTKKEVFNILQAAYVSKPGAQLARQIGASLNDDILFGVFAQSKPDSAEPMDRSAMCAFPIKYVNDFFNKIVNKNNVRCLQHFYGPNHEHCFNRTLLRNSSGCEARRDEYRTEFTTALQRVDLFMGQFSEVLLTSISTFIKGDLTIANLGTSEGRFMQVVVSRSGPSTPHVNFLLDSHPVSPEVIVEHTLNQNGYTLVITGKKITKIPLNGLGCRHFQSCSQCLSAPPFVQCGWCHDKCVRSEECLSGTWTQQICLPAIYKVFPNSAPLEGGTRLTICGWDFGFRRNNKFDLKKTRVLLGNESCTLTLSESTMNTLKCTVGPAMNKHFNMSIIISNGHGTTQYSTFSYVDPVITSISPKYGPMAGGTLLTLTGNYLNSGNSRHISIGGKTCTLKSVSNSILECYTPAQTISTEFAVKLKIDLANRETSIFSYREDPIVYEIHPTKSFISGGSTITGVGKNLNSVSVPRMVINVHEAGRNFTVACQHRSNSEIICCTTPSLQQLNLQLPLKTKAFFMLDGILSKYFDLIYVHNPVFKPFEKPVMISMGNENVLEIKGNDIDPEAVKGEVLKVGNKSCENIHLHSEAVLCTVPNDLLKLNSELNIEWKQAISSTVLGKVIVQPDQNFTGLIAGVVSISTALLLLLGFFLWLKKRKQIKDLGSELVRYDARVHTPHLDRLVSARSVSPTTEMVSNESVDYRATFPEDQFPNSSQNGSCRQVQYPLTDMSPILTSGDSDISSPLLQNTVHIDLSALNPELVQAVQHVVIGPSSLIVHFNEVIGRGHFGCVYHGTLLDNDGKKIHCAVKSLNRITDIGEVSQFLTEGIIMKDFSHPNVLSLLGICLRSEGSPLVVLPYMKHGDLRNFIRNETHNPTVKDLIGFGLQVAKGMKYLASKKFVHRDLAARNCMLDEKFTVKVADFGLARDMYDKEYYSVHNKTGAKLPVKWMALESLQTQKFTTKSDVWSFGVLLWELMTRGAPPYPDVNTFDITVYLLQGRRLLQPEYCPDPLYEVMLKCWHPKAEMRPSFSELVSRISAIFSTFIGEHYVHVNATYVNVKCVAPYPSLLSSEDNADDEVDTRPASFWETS
Sequence of 3-phosphoinositide-dependent protein kinase 1 (Homo sapiens) (O15530 whole entry): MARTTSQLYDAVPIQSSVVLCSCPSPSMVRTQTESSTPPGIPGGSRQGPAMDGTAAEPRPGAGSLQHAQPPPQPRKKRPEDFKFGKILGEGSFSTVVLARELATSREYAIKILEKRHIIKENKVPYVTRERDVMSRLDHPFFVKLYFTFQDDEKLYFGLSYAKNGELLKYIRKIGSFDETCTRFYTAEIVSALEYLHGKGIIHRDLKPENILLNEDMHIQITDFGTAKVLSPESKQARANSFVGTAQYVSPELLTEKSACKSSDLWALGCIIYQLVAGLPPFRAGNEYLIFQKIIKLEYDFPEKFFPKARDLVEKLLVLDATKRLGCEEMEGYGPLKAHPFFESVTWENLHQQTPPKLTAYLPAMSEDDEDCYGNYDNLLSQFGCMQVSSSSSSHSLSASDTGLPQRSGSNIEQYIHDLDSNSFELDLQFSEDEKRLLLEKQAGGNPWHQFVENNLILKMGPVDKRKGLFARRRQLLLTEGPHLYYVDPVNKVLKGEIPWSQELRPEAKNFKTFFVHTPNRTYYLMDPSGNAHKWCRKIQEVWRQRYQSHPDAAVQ
Sequence of Phosphatidylinositol 4,5-bisphosphate 3-kinase catalytic subunit beta isoform (Homo sapiens) (P42338 whole entry, looked up, canonical isoform): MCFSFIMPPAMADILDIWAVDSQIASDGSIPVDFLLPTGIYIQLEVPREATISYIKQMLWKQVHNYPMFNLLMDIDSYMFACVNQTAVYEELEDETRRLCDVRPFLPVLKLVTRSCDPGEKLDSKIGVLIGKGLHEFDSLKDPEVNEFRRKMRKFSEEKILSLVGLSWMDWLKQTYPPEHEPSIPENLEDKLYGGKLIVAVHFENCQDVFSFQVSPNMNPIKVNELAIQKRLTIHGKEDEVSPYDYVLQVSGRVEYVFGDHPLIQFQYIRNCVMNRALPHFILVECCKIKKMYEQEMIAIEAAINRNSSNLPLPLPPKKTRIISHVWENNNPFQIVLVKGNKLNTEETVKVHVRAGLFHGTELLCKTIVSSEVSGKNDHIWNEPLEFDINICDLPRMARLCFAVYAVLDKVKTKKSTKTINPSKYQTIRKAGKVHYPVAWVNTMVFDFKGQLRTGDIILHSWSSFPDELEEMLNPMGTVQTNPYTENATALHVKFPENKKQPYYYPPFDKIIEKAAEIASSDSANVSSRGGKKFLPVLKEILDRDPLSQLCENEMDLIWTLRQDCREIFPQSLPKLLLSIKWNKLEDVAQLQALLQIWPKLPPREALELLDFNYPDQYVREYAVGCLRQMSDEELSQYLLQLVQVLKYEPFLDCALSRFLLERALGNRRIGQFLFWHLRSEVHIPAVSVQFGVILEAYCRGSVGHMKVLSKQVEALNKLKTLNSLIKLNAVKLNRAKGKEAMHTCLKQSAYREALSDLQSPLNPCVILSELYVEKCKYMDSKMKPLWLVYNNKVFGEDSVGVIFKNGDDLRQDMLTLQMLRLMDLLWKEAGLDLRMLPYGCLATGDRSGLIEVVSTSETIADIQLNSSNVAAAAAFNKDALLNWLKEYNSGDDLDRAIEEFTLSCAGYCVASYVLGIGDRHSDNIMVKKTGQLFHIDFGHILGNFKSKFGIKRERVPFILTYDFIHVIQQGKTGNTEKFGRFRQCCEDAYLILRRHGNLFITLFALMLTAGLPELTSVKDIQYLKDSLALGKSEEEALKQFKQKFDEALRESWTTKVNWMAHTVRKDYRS
Sequence of Serine/threonine-protein kinase PLK1 (Homo sapiens) (P53350 whole entry): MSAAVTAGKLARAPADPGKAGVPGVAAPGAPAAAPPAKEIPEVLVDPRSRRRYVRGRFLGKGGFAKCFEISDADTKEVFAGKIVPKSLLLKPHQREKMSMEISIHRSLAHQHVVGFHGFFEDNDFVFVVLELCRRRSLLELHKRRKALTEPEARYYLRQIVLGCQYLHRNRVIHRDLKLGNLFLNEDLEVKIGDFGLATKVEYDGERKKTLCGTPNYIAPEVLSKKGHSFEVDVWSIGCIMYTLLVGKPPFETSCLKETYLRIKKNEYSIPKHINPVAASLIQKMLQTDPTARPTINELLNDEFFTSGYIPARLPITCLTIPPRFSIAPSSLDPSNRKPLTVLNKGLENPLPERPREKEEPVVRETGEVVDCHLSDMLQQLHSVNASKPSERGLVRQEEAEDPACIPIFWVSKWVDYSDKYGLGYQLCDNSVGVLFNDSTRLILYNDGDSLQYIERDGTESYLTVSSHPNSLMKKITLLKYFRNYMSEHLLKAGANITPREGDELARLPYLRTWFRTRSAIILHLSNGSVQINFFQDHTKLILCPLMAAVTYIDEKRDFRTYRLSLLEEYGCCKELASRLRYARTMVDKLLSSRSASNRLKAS
Sequence of Mitogen-activated protein kinase 14 (Homo sapiens) (Q16539 whole entry): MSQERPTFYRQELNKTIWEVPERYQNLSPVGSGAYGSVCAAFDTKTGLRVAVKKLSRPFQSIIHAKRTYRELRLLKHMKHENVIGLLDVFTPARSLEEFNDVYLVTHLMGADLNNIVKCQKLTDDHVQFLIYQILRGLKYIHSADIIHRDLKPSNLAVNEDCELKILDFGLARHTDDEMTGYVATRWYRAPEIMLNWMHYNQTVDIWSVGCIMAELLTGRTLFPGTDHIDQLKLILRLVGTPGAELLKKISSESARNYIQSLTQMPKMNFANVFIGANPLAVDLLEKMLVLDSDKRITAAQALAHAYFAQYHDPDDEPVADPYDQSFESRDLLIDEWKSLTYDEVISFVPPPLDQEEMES

With CC1=Nc2c(F)cc(-c3nc(Nc4ccc(C5CCN(C)CC5)cn4)ncc3F)cc2C12CCCC2 [CROZBACICLIB] as the molecule, how does the Fu [1] read?
The Fu was 0.7%.

And the inhibition [2]?
Its inhibition is -2%.

And the AUC(0-t) at 24 h [3]?
Its AUC(0-t) at 24 h is 886 ng·h/mL.

What about the inhibition [4] of the same molecule?
The inhibition was 12%.

And the inhibition [5]?
The inhibition was 11%.

And the inhibition [6]?
The inhibition was 3%.

What about the half-life [7] of the same molecule?
Its half-life is 6.03 h.

What about the Cmax [8] of the same molecule?
The Cmax was 134 ng/mL.

What about the inhibition [9] of the same molecule?
Its inhibition is 0%.

And the inhibition [10]?
The inhibition was 6%.

And the inhibition [11]?
Its inhibition is -3%.

What about the logD at 1 h [12] of the same molecule?
The logD at 1 h was 3.49.

What about the inhibition [13] of the same molecule?
The inhibition was 4%.

And the Vd [14]?
The Vd was 17.4 L/kg.

And the inhibition [15]?
Its inhibition is 2%.

And the inhibition [16]?
The inhibition was 13%.

And the inhibition [17]?
The inhibition was 87%.

And the inhibition [18]?
The inhibition was 3%.

And the inhibition [19]?
The inhibition was 3%.

And the inhibition [20]?
The inhibition was 31%.

What about the inhibition [21] of the same molecule?
The inhibition was 19%.

And the inhibition [22]?
Its inhibition is 14%.

And the inhibition [23]?
Its inhibition is 24%.

What about the inhibition [24] of the same molecule?
The inhibition was -3%.

And the inhibition [25]?
Its inhibition is 105%.

What about the inhibition [26] of the same molecule?
Its inhibition is 26%.

And the inhibition [27]?
Its inhibition is 9%.

What about the inhibition [28] of the same molecule?
The inhibition was 26%.

And the inhibition [29]?
Its inhibition is -5%.

What about the inhibition [30] of the same molecule?
The inhibition was -8%.

What about the Fu [31] of the same molecule?
The Fu was 0.04%.

What about the inhibition [32] of the same molecule?
The inhibition was 17%.
